Reference: patent publication US8389501B2, “Anticancer compound” (priority 2011, dated 2013)
Read-outs that look alike come from different tables or passages of the source.

Legend:
IL-2 production = test: IL-2 cytokine production by PHA activated peripheral blood mononuclear cells (ELISA); type: cell-based, human
Method: (§1) FIG. 2: Effect of Compounds 1-3 on phytohemagglutinin (PHA) T-cell proliferation and production. (2A) The bar graph represents effects of various concentrations of the test Compounds 1-3 after 72 h incubation with peripheral blood mononuclear cells at 37° C. Effect of compounds on T-cell proliferation response is compared with non-proliferated […] cells. The bar graph (2B) represents effects of various concentrations of the test Compounds 1-3 on production of IL-2 compared with (+ve) and without (−ve) PHA induced IL-2 production. Each bar represents the mean value of triplicate reading±SD.
IL-2 cytokine was produce from peripheral blood mononuclear cells (PBMC). IL-2 cytokine production by PHA activated cells in the presence or absence of test compounds was studied by ELISA using the human cytokine kit (Diaclone, Besancon Cedex France). Briefly, freshly prepared mononuclear cells (10^5/well) were cultured in 96-well microtiter flat bottom plate in the presence or absence of 5 μg/mL PHA. Four different concentrations (10.33-331.13 μM/mL) of compounds, along with PHA, were used in this assay. The culture plate was incubated at 37° C. for 18 h. Then the supernatant was collected and analyzed for IL-2 cytokine production following kit manufacturer instructions.

whole blood phagocytes = test: Oxidative burst, luminol-enhanced chemiluminescence, whole blood; type: cell-based, human; details: for IC50: Homo sapiens, diluted whole blood, opsonized zymosan-A, luminol
Method: (§2) In addition to that, effects of these compounds on T-cells proliferation were also evaluated; investigating their (Compounds 2 and 3) ability to modulate PHA activated T-cell proliferation response and production of IL-2 cytokine.
(§3) Heparinized blood was obtained by vein puncture aseptically from healthy volunteers (25-38 years age). The buffy coat containing PMNs was collected by dextran sedimentation and the cells were isolated after the LSM density gradient centrifugation from the tube base. Cells were washed twice and suspended in Hank's Balance Salt Solution (Ca^2+ and Mg^2+ free) (HBSS^−−), pH 7.4. Neutrophils were purified from RBCs contamination using hypotonic solution. Cells were adjusted to their required concentration using Hank's Balance Salt Solution containing Ca^2+ and Mg^2+ (HBSS^++).
(§4) Luminol-enhanced chemiluminescence assay was performed as described by Helfand et al. (17), and Haklar et al. (18) with some modifications. Briefly, 25 μL diluted whole blood (1:200 dilution in sterile HBSS^++) or 25 μL of PMNs (1×10^6) cells were incubated with 25 μL of serially diluted compounds with concentration ranges between 3.2-50 mg/mL. Tests were performed in white 96-well plates, which were incubated at 37° C. for […] in the thermostated chamber of the luminometer. Opsonized zymosan-A, 25 μL, followed by 25 μL luminol (7×10^−5 M) along with HBSS^++ was added to each well to obtain a 100 μL volume/well. Wells received HBSS^++, and cells but no compounds were used as a negative control. Chemiluminescence peaks were recorded with the Luminometer. Results were monitored as chemiluminescence relative light units (RLU) with peak and total integral values.

[1] = test system: PHA-activated T-cell proliferation; test: PHA-activated T-cell proliferation assay (3H-thymidine incorporation); type: cell-based, human; details: for IC50: Homo sapiens, T-cell, PHA 5 μg/mL, 72 hours incubation; for effect on T-cell proliferation (in words): PHA-activated
Method: as §1
The T-cell proliferation assay was performed as described by Nielson et al. (19). In this assay, isolated lymphocytes were stimulated by adding the phytohemagglutinin (PHA) in culture. The rate of proliferation and survival was measured by radiolabelled thymidine incorporation method. The lymphocytes were isolated as described by Boyum (20). A 50 μL of cell suspension (10^6/mL) was added to each well of a 96-well round bottom tissue culture plate. 50 μL of PHA was added in each well from the working solution (20 μg/mL) to have final concentration 5 μg/mL. The final volume was adjusted to 200 μL in each well by adding complete RPMI media. The plates were incubated at 37° C. for 72 hours (90% humidity, 5% CO2/air). Methyl-^3H thymidine (Amersham Pharmacia Biotech) 0.5 μCi was added in each well and incubated for further 18 hours. Cells were harvested on a filter mat (Type G-7) using cell harvester (INOTECH IH-280, Switzerland) and the radioactivity (CPM) was measured using a β-scintillation counter (LS 6500, Beckman Coulter, USA). (FIG. 2A)

[2] = test system: human lung cancer cell line (NCI-H460); test: Sulforhodamine B (SRB) growth inhibition assay; type: cell-based; details: for GI50: Homo sapiens
Method: The sulforhodamine B (SRB) protein-staining assay was employed for measurement of in vitro growth inhibition and cytotoxicity (21) The appropriate cell density (cells/well) of NCI-H460 cells (1×10^4) was added in 96-well plates. The cell density used was dependent on the doubling time of the cell line leading to the formation of monolayer. After 24 h incubation, different doses of Compounds 1-3 were added and incubated for further 48 h. This was followed by fixation of cells with ice-cold trichloroacetic acid (50 μl, 50%) at room temperature for 30 min. The plates were carefully washed five times with distilled water, and left for overnight drying in air. Sulforhodamine B dye (100 μl, 0.4% in 1% acetic acid) was introduced in each well and after 30 min residual dye was removed using acetic acid (1%) and air-dried overnight. The bound SRB dye was solubilized in Tris-base solution (100 μl, 10 mM) with gentle shaking on a plate-shaker for 5 min prior to optical density (OD) measurements at 545 nm in a plate reader. Drug concentrations causing growth inhibition (GI50) of 50% cells were calculated from dose response curves and total growth inhibition of Compound 2 was also evaluated.

[3] = test system: isolated polymorphoneutrophils (PMNs); test: Oxidative burst, luminol-enhanced chemiluminescence, isolated PMNs; type: cell-based, human; details: for IC50: Homo sapiens, isolated PMNs, opsonized zymosan-A, luminol
Method: as §2, §3, §4

[4] = Homo sapiens, PBMC, 18 h, PHA-activated PBMC, 18 h, ELISA, read-out: IC50 (μM) IL-2

Row | SMILES | IC50 (IL-2 production; [4]) | effect on IL-2 production (in words) (IL-2 production; PHA-activated PBMC) | IC50 (IL-2 production; PHA-activated PBMC, 18 h, ELISA, read-out: IC50 (μM) IL-2) | effect on reactive oxygen species (ROS) production, whole blood phagocytes (in words) (whole blood phagocytes) | IC50 (whole blood phagocytes) | IC50 [1] | effect on T-cell proliferation (in words) [1] | anticancer activity against NCI-H460 cell line (in words) [2] | GI50 ([2]; NCI-H460, 48 h, SRB) | growth inhibition of cancer cells at 100 μM (in words) ([2]; NCI-H460, 100 μM) | TGI (μM) ([2]; NCI-H460, 48 h, SRB) | effect on reactive oxygen species (ROS) production, isolated neutrophils (in words) [3] | IC50 [3] | IC50 (IL-2 production; Homo sapiens, PBMC, FIG. 2, read-out: IL-2 production IC50 (unit inferred)) | TGI ([2]; NCI-H460, 48 h, SRB)
1 | C[C@]12CCC(=O)C[C@@H]1CC[C@@H]1[C@@H]2CC[C@@]2(C)[C@H]1CC[C@]2(C)O [Compound 3, 17β-hydroxy-17α-methyl-5α-androstan-3-one] | 49.3 ± 1.32 µM | moderate inhibitory activity | 49.3 ± 1.32 µM | did not result in any significant effect | > 329 µM | 42.1 µM | moderate inhibitory activity | non-active | > 100 µM | not able to inhibit considerable growth of cancer cells | ND (ND: Values could not be determined indicates <50% inhibition of cell growth at maximum dose (100 μM) tested.) | did not result in any significant effect | > 164 µM |  | 
2 | C[C@]12C=CC(=O)C=C1CC[C@@H]1[C@@H]2CC[C@@]2(C)[C@H]1CC[C@]2(C)O [Compound 1, dianabol, reference compound] | > 167 µM | did not show any significant effect |  |  | > 333 µM | > 167 µM | did not show any significant effect | showed anticancer activity | 28.3 ± 2.72 µM |  | ND (ND: Values could not be determined indicates <50% inhibition of cell growth at maximum dose (100 μM) tested.) |  | > 167 µM |  | 
3 | COc1cccc2c1C(=O)c1c(O)c3c(c(O)c1C2=O)C[C@@](O)(C(=O)CO)C[C@@H]3O[C@H]1C[C@H](N)[C@H](O)[C@H](C)O1 [doxorubicin, reference compound] |  |  |  |  |  |  |  |  | 0.08 ± 0.02 µM |  |  |  |  |  | 
4 | C[C@]12C=CC(=O)C[C@@H]1CC[C@@H]1[C@@H]2CC[C@@]2(C)[C@H]1CC[C@]2(C)O [Compound 2, 17β-hydroxy-17α-methyl-5α-androst-1-en-3-one] | 16.9 ± 1.32 µM |  |  | did not result in any significant effect | > 331 µM | < 10.3 µM |  | showed anticancer activity | 22.5 ± 4.15 µM |  |  | did not result in any significant effect | > 166 µM | 16.9 ± 1.32 µM | 60 ± 9.2 µM
